One compound from patent US5840698A, “Inhibitors of collagenase-1 and stormelysin-I metalloproteases, pharmaceutical compositions comprising same and methods of their use” (Affymax Technologies N.V., priority 1995, dated 1998) can be followed below.

This assay addresses T1, carboxyl terminal truncated form of human stromelysin-I (Homo sapiens, UniProt P08254).
T1 construct: a carboxyl terminal truncated form of human stromelysin-I
The assay is described as follows: in vitro inhibition of truncated human stromelysin-I, fluorogenic Mca-peptide assay. To be noted: mercaptoalcohol compared with corresponding mercaptoketone. The assay is classed as biochemical. As to the method: For example, assays of in vitro inhibition activity against a carboxyl terminal truncated form of human stromelysin-I were conducted as follows. The buffer was prepared from 50 mM of N-[2-hydroxyethyl]piperazine-N'-[2-ethanesulfonic acid] (HEPES) (pH 7.0) containing 5 mM calcium, 0.02% of 23 lauryl ether (Brij) and 0.5 mM cysteine and was degassed by vacuum for more than 30 minutes. The methanol (MeOH), which is used for dilution of the inhibitor to the desired concentration, was degassed by bubbling argon for more than 30 minutes. For dilution, a sufficient amount of MeOH was then added to the compounds of the present invention to obtain a 10 mmol solution. For the assay, 20 μL of the MeOH/inhibitor solution was added to 460 μL of buffer, to which 20 μL of 100 nM of stromelysin was then added. The resulting solution was left for three minutes, after which time 5 μL of 100 μM of (7-methoxycoumarin-4-yl)acetyl-Pro-Leu-Gly-Leu-[3-(2',4'-dinitrophenyl)-L- 2,3-diaminopropionyl]-Ala-Arg-NH2 (Mca-peptide)(in dimethyl sulfoxide (DMSO)) was added. The fluorescence intensity increase was measured using a fluoremeter, with excitation wavelength centered around 328 nm (slit of 5 nm) and emission wavelength centered around 393 nm (slit of […]). The slope at each inhibitor concentration was then measured. The slope versus inhibition concentration was next fit into the IC50 equation of […]

T1 sequence (P08254 100-272 limits assumed): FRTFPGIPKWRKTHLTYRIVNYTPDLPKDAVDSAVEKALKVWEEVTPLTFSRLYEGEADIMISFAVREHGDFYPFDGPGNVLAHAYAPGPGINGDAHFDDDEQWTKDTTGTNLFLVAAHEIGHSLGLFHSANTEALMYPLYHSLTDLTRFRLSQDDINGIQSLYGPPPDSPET

Consider `CC(C)C[C@H](CC1CSC(c2ccccc2)(c2ccccc2)O1)C(=O)N1C(=O)OC[C@@H]1Cc1ccccc1` (stereo partly shown) [FIG. 11 (3)], for which the “potency against stromelysin relative to the corresponding compound (FIG. 11)” value is “more than twice as potent”.
